Assay results from patent publication US6787318B1, “Assay for evaluating the therapeutic effectiveness of agents in reducing Alzheimer's disease pathology” (Roskamp Research Institute, LLC, priority 1999, dated 2004).
Entries after “also recorded” stand apart in the source; their conditions may differ.

How the values were obtained:
[1] = tested on: CD40; assay: CD40 expression in Aβ-treated N9 and N60 microglial cells, flow cytometry; format: cell-based, murine
From the text: Mononuclear cells from AD patients secrete markedly higher levels of IFN-γ compared to age-matched controls (18).

[2] = tested on: CD40; assay: CD40 expression in primary cultured microglia; format: cell-based, mice; conditions: microglia from control littermates exposed to exogenous peptide, vs Aβ40-1 or sAPPα-695
[3] = tested on: TNF-α; assay: TNF-α release from cultured microglia, TNF-α ELISA; format: cell-based, mice; conditions: 500 nM, primary cultured microglia
[4] = tested on: cortical neurons; assay: Cortical neurons incubated with treated N9 microglia, photomicrographs; format: cell-based, murine; conditions: Aβ1-42 250 nM, CD40L 0.5 μg/ml
[5] = tested on: HAEC; assay: Cytotoxicity in HAEC, LDH release assay; format: cell-based, human; conditions: 500 nM, 48 hours
Experimental: Previous reports have shown that overexpression of amyloid precursor protein or exogenous addition of Aβ peptides can have cytotoxic effects on cultured endothelial cells.
In order to determine if ligation of endothelial CD40 could result in production of pro-inflammatory cytokines, IL-1β was measured following treatment with IFN-γ or Aβ peptides. […] There was not observe a significant induction of endothelial cell death by LDH release assay between treatment groups during the time course examined by IL-1β release assay (by One-way ANOVA, F(6,41)=0.322, p=0.921), supporting the hypothesis that stimulation of the CD40 pathway in endothelial cells results in an early pro-inflammatory cascade which later promotes cell injury, rather than induce cytotoxicity acutely.

[6] = tested on: CD40; assay: CD40 cell ELISA on cultured HAEC; format: cell-based, human; conditions: Aβ 50 nM to 10,000 nM; IFN-γ 5 to 500 U/mL; 48 hours
Experimental: To determine if CD40 expression on cultured HAEC was IFN-γ or Aβ dose-dependent, CD40 cell ELISA assays were performed according to published procedures. Briefly, cultured HAEC were plated at 2×10^4 cells/well in flat-bottom, 96-well tissue culture plates (Nunc-Immuno™ Plate, Denmark). […] Other HAEC were treated with a dose range (5 U/mL to 500 U/mL) of IFN-γ. […] Forty-eight hours post-treatment, plates were fixed overnight at 4° C. in 1% paraformaldehyde diluted in 1×PBS, washed three times with wash buffer (0.5% Tween 20 in 1×PBS), and subsequently incubated with […] of blocking buffer (10% fetal bovine serum in wash buffer) for one hour at 37° C. Cells were then treated with purified anti-human CD40 antibody ([…], PharMingen, Los Angeles, Calif.) in […] of blocking buffer for one hour at 37° C. Plates were washed four times with wash buffer. Biotinylated anti-mouse IgG1 (PharMingen, Los Angeles, Calif.; 1:2,000 dilution in blocking buffer, […]) was added and incubated for one hour at 37° C., followed by the addition of […] of a 1:3,000 dilution of HRP-Streptavidin (ZYMED, San Francisco, Calif.) for thirty minutes at 37° C. Plates were washed 4× with wash buffer and developed for twenty minutes at room temperature using the 3, 3′, 5, 5′-tetramethylbenzidine (TMB) one-step substrate system (DAKO, Carpinteria, Calif.) followed by the addition of 100 μL/well of 2N H2SO4 to stop the reaction. Absorbance was measured at 450 nm using a microplate spectrophotometer (SPECTRAmax 250, Molecular Devices, Sunnyvale, Calif.).

[7] = tested on: IFN-γ; assay: IFN-γ secretion from HAEC, ELISA; format: cell-based, human; conditions: 24 hours
Experimental: The assay for either IL-1β or IFN-γ was performed in strict accordance with the manufacturer's instructions for the respective assay kits.
(§1) Activation of CD40 signalling can be achieved by stimulation with either CD40L or certain anti-CD40 mAbs. Since synthetic CD40L is not commercially available, one of the anti-CD40 mAbs (clone 3/23), which has been reported to activate CD40 signalling, was used to mimic the effect of interaction of CD40-CD40L. All Aβ-treated cells were incubated with 1 μg/ml anti-CD40 mAb […]) for four hours followed by CELISA.
The resulting cell culture media were assayed for IL-1β or IFN-γ using ELISA. […] The lowest effective concentration was determined to be 100 nM for IFN-γ ([…]). The lowest effective concentration was determined to be 100 nM for IFN-γ (p<0.01) and 1 μM for IL-1β (p<0.01).

[8] = tested on: IFN-γR; assay: IFN-γR expression in HASM cells, cell-ELISA (CELISA); format: cell-based, human; conditions: Aβ-treated cells, 1 μg/ml mAb, four hours
Experimental: (§2) In vitro measurement of Aβ-induced changes in expression of the inflammatory cell-surface molecules CD40 and […] in cultured HAEC and HASM cells was performed using a slightly modified ABC-based cell-ELISA (CELISA). […] After PBS washes, 4% neutral formalin solution (Sigma) was used for fixation of the cells. Following quenching of the endogenous peroxidase activity with 3% H2O2 and routine blocking of non-specific binding, the biotinylated specific secondary antibodies against the primary antibodies (goat anti-mouse or anti-rabbit IgG) were applied. The combination of EXTRAVIDIN® Proxidase and the subsequent color reaction was performed strictly according to the manufacturer's instructions in the EXTRAVIDIN® Peroxidase Staining Kit (Sigma). The absorbance of 405 nm was then measured using a microplate reader (SPECTRAmax 250, Molecular Devices). The optical density (O.D.) value for the wells in the absence of the primary antibody for each group was considered as background and subtracted as the blank. In addition, stimulation with IFN-γ for CD40 was included as a positive control in the appropriate plate. Since CD45 is not expressed by endothelial or smooth muscle cells, the assays for expression of CD45 in these Aβ-treated cells were used as negative controls throughout the experiment. In addition, to evaluate the degree of cell death or proliferation in the Aβ-treated, cells, parallel experiments were performed using the MTS (3-(4,5-dimethylthiazol-2-yl)-5-(3-carboxymethoxyphenyl)-2-(4-sulfophenyl)-2H-tetrazolium) cell-proliferation kit (Promega).
as §1

[9] = tested on: CD40; assay: CD40 expression in HAEC, cell-ELISA (CELISA); format: cell-based, human
Experimental: as §2

[10] = tested on: TNF-α; conditions: high doses, literature (Meda et al.); cited from earlier work

Substance: Aβ1-42: amyloid β peptide 1-42, freshly solubilized
- CD40 expression on cultured microglial cells ([1]; 250 nM freshly solubilized peptide, N9 and N60 cells, vs control peptide or Aβ-free): significantly induce CD40 expression
- dose dependence of microglial CD40 expression ([1]; from 50 to 1250 nM, N9 cells): induces microglial CD40 expression in a dose-dependent manner; also recorded: induced microglial CD40 expression in a dose dependent manner
- CD40 expression in primary cultured microglia [2]: CD40 expression is increased
- TNF-α release, peptide alone [3]: does not induce TNF-α release
- change in cortical neurons [4]: no change in cortical neurons
- cell injury, LDH release [5]: no significant induction of cell injury
- dose dependence of endothelial CD40 [6]: marked increase in endothelial CD40 which is dose-dependent
- lowest effective concentration for IFN-γ secretion [7]: 100 nM
- IFN-γ secretion, dose dependence ([7]; increasing concentrations): increases the secretion of IL-1β and IFN-γ in a dose-dependent manner
- IFN-γR expression in HASM cells on CD40 ligation by mAb (3/23) [8]: additive
- CD40 expression in HAEC, dose dependence [9]: dose-dependently increase CD40 expression
- lowest effective concentration for CD40 expression ([9]; HAEC): 100 nM
- dose able to produce increased TNF-α production in microglial cells [10]: > 11 µM
